Settings: Liquid, Buoyancy - hydrostatic balance with magnetic suspension - one sinker

CCCCCCCCCCC [undecane]
Settings | mass density [kg/m3]
313.17 K, 19009 kPa | 741.21
313.18 K, 9997 kPa | 734.69
313.19 K, 12016 kPa | 736.18
313.19 K, 18013 kPa | 740.5
313.22 K, 14009 kPa | 737.62
313.23 K, 16006 kPa | 739.05
313.24 K, 8029 kPa | 733.14
323.18 K, 19002 kPa | 734.54
323.19 K, 16026 kPa | 732.35
323.19 K, 17995 kPa | 733.8
323.22 K, 10009 kPa | 727.67
323.23 K, 12003 kPa | 729.24
323.23 K, 14022 kPa | 730.8
323.24 K, 7997 kPa | 726.03
333.12 K, 16003 kPa | 725.32
333.12 K, 17990 kPa | 726.87
333.13 K, 12007 kPa | 722.07
333.14 K, 8001 kPa | 718.68
333.14 K, 19027 kPa | 727.66
333.15 K, 14012 kPa | 723.7
333.16 K, 10001 kPa | 720.38
343.25 K, 13005 kPa | 716
343.25 K, 16996 kPa | 719.36
343.26 K, 11021 kPa | 714.27
343.26 K, 14019 kPa | 716.86
343.27 K, 15997 kPa | 718.51
343.27 K, 18006 kPa | 720.27
343.28 K, 11999 kPa | 715.12
343.28 K, 19019 kPa | 720.98
343.29 K, 7989 kPa | 711.51
343.29 K, 9998 kPa | 713.33
343.3 K, 14998 kPa | 717.66
353.16 K, 12003 kPa | 708.19
353.31 K, 11002 kPa | 707.25
353.31 K, 17012 kPa | 712.63
353.32 K, 13007 kPa | 709.08
353.32 K, 14999 kPa | 710.86
353.32 K, 19024 kPa | 714.35
353.33 K, 7993 kPa | 704.36
353.33 K, 14003 kPa | 709.98
353.33 K, 18010 kPa | 713.48
353.34 K, 16001 kPa | 711.73
353.35 K, 9996 kPa | 706.27

— the NIST ThermoML archive (doi:10.1021/acs.jced.6b00026)
